The values that follow come from patent publication US6962943B2, “Gabusectin derivatives, processes for preparing them and their use” (Aventis Pharma Deutschland GmbH, priority 2002, dated 2005).

Structures are written as SMILES. In brackets after ≈: the same amount, converted by molar mass.

What is called MIC is the smallest concentration in the dilution series that meets the test's criterion for growth inhibition.

One data set relates to Staphylococcus aureus. As to the kind of experiment: Agar diffusion test. The conditions noted are these: 37° C., 16 hours. The data set is classed as cell-based. The method, then:
Agar plates containing 2 ml of Staphylococcus aureus inoculum in 200 ml of agar solution were prepared. gabusectin was applied, in a 10 mM solution, to 6 mm-diameter paper disks, which were then laid on the agar plate. The inoculated Staphylococcus plates were incubated at 37° C. for 16 hours. Inhibition halos having the following diameters (mm) were then observed: Agar plates containing 2 ml of Staphylococcus aureus inoculum in 200 ml of agar solution were prepared. gabusectin methyl ester is applied, in a 10 mM solution, to 6 mm-diameter paper disks, which are then laid on the agar plate. The inoculated Staphylococcus plates were incubated at 37° C. for 16 hours. Inhibition halos having the following diameters (mm) were then observed.
In general terms: Agar diffusion results depend on both activity and mobility in agar.

The nature of data set [1]: Solubility (appearance/physicochemical properties). The source says: (§1) Stable in neutral and mildly acidic medium but unstable in strongly acidic and strongly alkali solution. […] Stable in neutral and mildly acidic medium but unstable in strongly acidic and strongly alkaline solution.
Data set [2] in a line: Stability in solution (physicochemical properties). The conditions noted are these: for Stability in strongly acidic and strongly alkaline solution: strongly acidic and strongly alkali(ne) solution.
Text: as §1

A further data set concerns E. faecium (M78L). The experiment in a line: In-vitro antibacterial activity, serial dilution test. The conditions noted are these: Enterococcus faecium, read-out: MIC values. It is filed as cell-based. The source says:
(§2) Table 1 summarizes the minimum inhibitory concentrations (MICs) of gabusectin, by way of example.

The next data set concerns S. aureus (Exp54146). The description is as above. It is filed as cell-based. The settings on record: Staphylococcus aureus.
Text: as §2

A further data set relates to S. aureus (SG511). The data set is described as above. It is filed as cell-based. The settings on record: Staphylococcus aureus.
Text: as §2

The next data set relates to S. pyogenes (A561). Described as above. The data set is classed as cell-based. The conditions noted are these: Streptococcus pyogenes.
Text: as §2

A short description of a further data set: Tolerability. The settings on record: at and above its effective concentration. The source says:
Gabusectin is well-tolerated at and above its effective concentration.

Where [3] appears, read: 10 μL of 10 mM solution on 6 mm paper disk.
The mark [4] stands for this setting: 20 μL of 10 mM solution on 6 mm paper disk.
The mark [5] stands for this setting: 40 μL of 10 mM solution on 6 mm paper disk.

In the case of `C/C=C/[C@H]1C(C)=C[C@@]2(C)C[C@H](C)CC[C@H]2[C@]1(C)/C(O)=C1\C(=O)C(CCC(=O)OC)N(C)C1=O` (stereo partly shown) [gabusectin methyl ester], the Inhibition halo size with Staphylococcus aureus (setting [3]) is reported as 0 mm. For the same compound, the Inhibition halo size with Staphylococcus aureus (setting [4]) was 7 mm. In the data set with Staphylococcus aureus (setting [5]), this compound gave an Inhibition halo size of 8 mm. In data set [1], the “Solubility in medium-polar and polar organic solvents” value is “soluble”; the Solubility in water result is on record as “not particularly soluble”. Further, in data set [2], the “Stability in neutral and mildly acidic medium” value is given as “Stable”; the “Stability in strongly acidic and strongly alkaline solution” value is given as “unstable”.
Consider `C/C=C/C1C(C)=CC2(C)CC(C)CCC2C1(C)/C(O)=C1\C(=O)C(CCC(=O)O)N(C)C1=O` (stereo not shown) [gabusectin], for which the minimum inhibitory concentration (MIC) was determined as 40 µg/mL (≈ 90.2 µM) in the data set on E. faecium (M78L), 20 µg/mL (≈ 45.1 µM) against S. aureus (Exp54146), 5 µg/mL (≈ 11.3 µM) with S. aureus (SG511) and 20 µg/mL (≈ 45.1 µM) against S. pyogenes (A561). Also, the Inhibition halo size in the data set with Staphylococcus aureus (setting [3]) worked out at 8 mm; in the data set on Staphylococcus aureus (setting [4]) it was 14 mm; in the data set with Staphylococcus aureus (setting [5]), 17 mm. For the same compound, in data set [1], the “Solubility in medium-polar and polar organic solvents” value is recorded as “soluble”. For the same compound, the Solubility in water entry in data set [1] was “not particularly soluble”. Moreover, the “Stability in neutral and mildly acidic medium” value in data set [2] is recorded as “Stable”. Moreover, the “Stability in strongly acidic and strongly alkaline solution” value in data set [2] is recorded as “unstable”. Besides, the Tolerability entry in “Tolerability” is listed as “well-tolerated”.
